Laboratory results from patent US7531651B2, “Benzenesulphonate salt of a morpholine urea derivative for use as a CCR-3 antagonist in the treatment of inflammatory conditions” (Glaxo Group Limited, priority 2002, dated 2009).

What was measured:
[1] = biological target: T1, CCR-3 (Homo sapiens, UniProt P51677); assay: CCR-3 competition binding SPA ([125I]eotaxin); details: membranes from K562 cells stably expressing CCR-3; 20 pM [125I]eotaxin; read-out: pIC50 (inhibition of [125I]eotaxin binding) (converted)
T1 construct: expressed in transfected cells
T1 sequence (P51677 1-355): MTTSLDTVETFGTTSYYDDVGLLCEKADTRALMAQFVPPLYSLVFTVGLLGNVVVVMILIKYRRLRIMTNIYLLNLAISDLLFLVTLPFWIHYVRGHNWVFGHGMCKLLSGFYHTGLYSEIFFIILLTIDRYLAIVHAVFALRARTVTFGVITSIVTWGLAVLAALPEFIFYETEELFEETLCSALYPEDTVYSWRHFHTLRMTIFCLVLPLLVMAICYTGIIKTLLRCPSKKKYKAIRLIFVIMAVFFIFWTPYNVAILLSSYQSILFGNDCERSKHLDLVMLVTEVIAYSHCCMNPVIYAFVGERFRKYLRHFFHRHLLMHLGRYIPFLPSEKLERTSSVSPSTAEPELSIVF
Procedure: A CCR-3 competition binding SPA (scintillation proximity assay) was used to assess the affinity of novel compounds for CCR-3. Membranes prepared from K562 cells stably expressing CCR-3 (2.5 μg/well) were mixed with 0.25 mg/well wheat-germ agglutinin SPA beads (Amersham) and incubated in binding buffer (HEPES 50 mM, CaCl2 1 mM, MgCl2 5 mM, 0.5% BSA) at 4° C. for 1.5 hr. Following incubation, 20 pM of [^125I] eotaxin (Amersham) and increasing concentrations of compound (1 pM to 30 μM) were added and incubated in a 96 well plate for 2 hr at 22° C. then counted on a Microbeta plate counter. The total assay volume was 100 μl. Competition binding data were analysed by fitting the data with a four parameter logistic equation. Data are presented as the mean pIC50 values (negative logarithm of the concentration of compound which inhibits [^125I]eotaxin binding by 50%) from at least two experiments.

[2] = Hygroscopicity; type: physicochemical
[3] = Stability in aqueous solution (impurity profiles); details: presence and absence of light, 8 days, pH range 2-10
Source text: Thus a convenient method for determining the stability of the compounds of the invention in aqueous solution involves determining the impurity profiles of an aqueous solution of the test compound at known conditions of temperature and over known periods of time.

[4] = biological target: eosinophils; assay: Eosinophil chemotaxis assay (eotaxin-induced); type: cell-based; details: human peripheral blood eosinophils; agonist eotaxin at EC80
Procedure: (b) Eosinophil Chemotaxis Assay.
Compounds were evaluated for their inhibitory effect on eosinophil chemotaxis. Eosinophils were purified from human peripheral blood by standard CD16 cell depletion using a Miltenyi cell separation column and a magnetic Super Macs magnet as previously described (Motegi & Kita, 1998; J. Immunology. 161:4340-6). Cells were re-suspended in RPMI 1640/10% FCS solution and incubated with calcein-AM (Molecular Probes) at 37° C. for 30 mins. Following incubation, the eosinophils were centrifuged at 400 g for 5 min and re-suspended in RPMI/FCS at 2.2 million/ml. Cells were then incubated in the presence of increasing concentration of compounds (1 μM to 30 μM) at 37° C. for 30 mins. For control responses cells were incubated with RPMI/FCS only. The agonist eotaxin (either a concentration response curve or for the functional inhibition curves an EC80 concentration) was added to the lower chamber of a 96 well chemotaxis plate (5 μm filter: Receptor Technologies). […] Cells remaining on top of the chemotaxis filter were removed and the number of eosinophils which had migrated were quantified by reading the plate on a fluorescent plate reader. Inhibition curves for the effect of compounds on eosinophil chemotaxis were analysed by fitting the data with a four parameter logistic equation. […]

[5] = Solid form storage stability tests (temperature/humidity/light)
Source text: The stability of the compound of the invention may be determined using conventional quantitative analytical methods: For example the stability of the compound in the solid form may be determined by using accelerated stability tests such as differential scanning calorimetry (DSC), thermogravimetric analysis (TGA) and isothermal testing at elevated temperatures including conventional storage tests wherein the test compound is stored under controlled conditions of temperature and humidity over known periods of time. Quantitative analysis of the test compounds, against appropriate reference standards before, during and after the storage period allows the stability of the test compound to be determined.

[6] = Solubility in water versus free base

With `NC(=O)c1ccc(CNC(=O)NC[C@H]2CN(Cc3ccc(Cl)c(Cl)c3)CCO2)cc1.O.O.O=S(=O)(O)c1ccccc1` [compound of the invention, 4-({[({[(2S)-4-(3,4-dichlorobenzyl)morpholin-2-yl]methyl}amino)carbonyl]amino}methyl)benzamide benzenesulfonate dihydrate] the IC50 [1] was less than 10 µM, the hygroscopicity [2] was “non-hygroscopic” and the aqueous stability [3] was “good aqueous stability”. For the same compound, the “fpKi (functional pKi)” value [4] was “greater than 5”, the “degradation on storage (solid form)” value ([5]; 50° C./ambient conditions, 25 days) was “no significant degradation” and the “degradation on storage (solid form)” value ([5]; light cabinet, ambient conditions, 14 days) was “no significant degradation”. For the same compound, the “solubility in water compared with the free base” value [6] was “more soluble in water than the corresponding free base”.
